{"source": "patent US20160129005A1", "about": "“ADENINE DERIVATIVES HAVING IMMUNOMODULATING ANTI-INFLAMMATORY AND ANALGESIC ACTIVITY” (MEDESTEA RESEARCH & PRODUCTION S.p.A., priority 2011, published 2016)", "key": {"naive murine CD4+ cells": {"system": "naive murine CD4+ cells", "test": "Activation of naive murine CD4+ T cells in vitro (CFSE, cytofluorimeter, ELISA)", "assay_type": "cell-based, mouse", "excerpt": "The lymphocytes are cells of the immune defences that direct and amplify the response to attack. Their imbalance or malfunction is also at the root of autoimmune diseases. Successful increase in the ratio in favour of Treg cells can restore the equilibrium of the immune response and combat the resultant disorders. We analysed the activation of isolated naive murine CD4+ cells in the cytofluorimeter for the phenotype CD4+CD62L+CD44−CD25−. The cells were labelled with “5,6-carboxyfluorescein diacetate succinimyl ester” (CFSE) and we evaluated cellular proliferation in quantitative acquisitions with the cytofluorimeter based on the dilution of fluorescence, which depends on the proliferative activity of the cell."}, "U937 cells": {"system": "U937 cells", "test": "Secretion of pro-inflammatory cytokines by LPS-stimulated U937 cells (ELISA)", "assay_type": "cell-based, human", "conditions": "drug with LPS (12 hrs) or added after LPS for 2 or 6 hours, FIG. 1", "procedure": "The production in vitro of MCP-1 (monocyte chemoattractant protein-1), TNF-α (tumour necrosis factor alpha), IL-6 (interleukin 6) was analysed. These cytokines induce the production of other cytokines that attract leukocytes to the site of inflammation, potentiating the immune response. This amplifies leukocyte “recruitment” at the site of inflammation, promoting “extravasation” of immune cells from the peripheral circulation.\nThe U937 cells were plated at a density of 250 000 cells/ml and left in quiescence for 24 hours.\nThe drug was added in fresh medium, simultaneously or after removal of LPS from the culture. The cells were kept in an incubator at 37° C. with supply of CO2 at 5%.\nAnalysis of the production of growth factors was performed on the cellular supernatants collected, by ELISA assay using commercial kits (Human TNF-α Quantikine ELISA Kit code DTA00C, R&D Systems assay. Human IL-6 Quantikine ELISA Kit code D6050, R&D Systems assay. Human CCL2/MCP-1 Quantikine ELISA Kit code DCP00, R&D Systems assay)."}, "Male Sprague-Dawley rats": {"system": "Male Sprague-Dawley rats", "test": "Neuropathic pain: SNI model (lesion of the sciatic nerve)", "assay_type": "in vivo, rat", "excerpt": "We evaluated the effect of […] in a model of neuropathic pain: the model of lesion of the sciatic nerve. The characteristic feature of neuropathic pain is that both macroglia and microglia (the cells that support the neurons metabolically) can alter their phenotype (reactive gliosis) as a result of some traumatic-inflammatory peripheral events, duplicated in this model. These phenotypic and functional changes can become permanent and the perception of pain can continue even after its primary cause has disappeared. The cells react to the positive lesion by increasing the glial fibrillary acidic protein (GFAP) and the ionized calcium-binding adapter molecule (IBA1). Male Sprague-Dawley rats (250-300 g; Harlan, Italy) were divided into 5 groups.\nGroup I was treated with […] daily from day 1 to day 21; group II was treated daily with the drug from day 1 to day 7 and then again with a single dose on day 14; group III was treated with […] on day 1, day 7 and day 14; group IV was treated with only the vehicle and group V was submitted to a sham operation ([…]). […]\nBehavioural tests were performed daily from day 0 to day 7 and then on alternate days until day 28. Mechanical allodynia was induced by von Frey filament stimulation and the onset of thermal hyperalgesia was measured using the Ugo Basile apparatus according to Hargreaves' method, 1988."}, "male Sprague Dawley rats": {"system": "male Sprague Dawley rats", "test": "Pain from chemotherapeutic drugs: model with paclitaxel (von Frey, Hargreaves)", "assay_type": "in vivo, rat", "conditions": "P≦0.001", "procedure": "One of the best validated models for testing this effect is that described hereunder; repeated administration of paclitaxel to rats. The animals (male Sprague Dawley rats weighing 250-300 g; Harlan, Italy) were treated with paclitaxel (2 mg/kg) administered intraperitoneally on alternate days (day 0,2,4,6). The behavioural tests for thermal and mechanical sensitivity were carried out on day 1 (the day following the first injection of paclitaxel), day 10, day 14 (7 days from the last injection), day 24 (peak severity of hyperalgesia and allodynia), day 30 and day 35 (day on which the animals were sacrificed). The animals (n=15) were divided into three experimental groups. The first group (A) received the treatment with paclitaxel, and was treated daily with […], 6 mg/kg by intraperitoneal injection from day 14 to day 35; the second group (B) treated with paclitaxel, was treated from day 14 to 35 with only the vehicle, and finally the third group consisted of naive animals (C). The results obtained are shown in the bar charts in FIGS. 18 and 19."}, "mdx mice": {"system": "mdx mice", "test": "Muscular dystrophy model", "assay_type": "in vivo, mouse", "excerpt": "The mdx mouse is characterized by a nonsense mutation in the dystrophin gene and constitutes an experimental model of DMD. The muscle of mdx is histologically normal in early postnatal development, but goes towards necrosis starting from the third week of life. The mdx mice show high levels of creatine kinase (CK) in the serum and accumulation of inflammatory cells, both markers of muscular degeneration. To assess the effect of […] in the progression of dystrophy and of inflammation in DMD, we treated mdx mice (n=10) at 4 weeks of age (in accordance with the recent SOPs for preclinical drug trials in mdx) with […] (0.25 mg/mouse) intraperitoneally every day for two weeks. The same number of mice of the same age was treated with the vehicle as control. After two weeks of treatment with […], the CK levels had decreased by 70% (P<0.05) (FIG. 33).\nCross sections of anterior tibial muscles stained with haematoxylin/eosin were quantified in duplicate in blind conditions with ImageJ software. In the same sections we also assessed centralization of the nucleus, degeneration of muscle fibres and their regeneration. […] The values obtained for the mice treated with […] were similar to those obtained for the control mice of the same age and genotype but without mutation in the dystrophin gene.\nTo assess the effect of […] on the inflammatory infiltrate in the muscle of mdx mice, the muscle sections were decorated with anti-CD3 antibodies (T cells). This analysis detected a 40% decrease in the number of cells positive for CD3."}, "[1]": {"conditions": "quantitative PCR, vs vehicle, FIG. 35"}}, "data": [{"smiles": "C=C(C=O)OC(C=O)n1cnc2c(N)ncnc21", "note": "(stereo not drawn) [2-[1-(6-aminopurin-9-yl)-2-oxoethoxy]prop-2-enal]", "values": [{"measurement": "number of proliferating cells (CFSE dilution)", "setting": "naive murine CD4+ cells; 300 μM, FIG. 21", "value": "more than ten-fold reduction"}, {"measurement": "secretion of interleukin-2", "setting": "naive murine CD4+ cells; ELISA in culture supernatant at 24 h", "value": "significantly reduces"}, {"measurement": "expression of CD44 and shedding of L-selectin CD62L (cells CD44 positive, CD62L negative)", "setting": "naive murine CD4+ cells; FIG. 21", "value": "significantly reduces"}, {"measurement": "side scatter of the cells (parameter of activation of CD4 cells)", "setting": "naive murine CD4+ cells; FIG. 21", "value": "reduced"}, {"measurement": "cellular secretion of IL-6", "setting": "U937 cells", "value": "reduces the cellular secretion"}, {"measurement": "cellular secretion of MCP-1", "setting": "U937 cells", "value": "reduces the cellular secretion"}, {"measurement": "cellular secretion of TNF-α", "setting": "U937 cells", "value": "reduces the cellular secretion"}, {"measurement": "pain (mechanical allodynia, thermal hyperalgesia)", "setting": "Male Sprague-Dawley rats; 6 mg/kg and 30 mg/kg i.p., from first day until 7 days after end of treatment, FIGS. 10-15", "value": "reduces pain significantly"}, {"measurement": "expression of the proteins of reactive gliosis Ibal and GFAP (immunohistochemical analysis)", "setting": "Male Sprague-Dawley rats; animals treated daily", "value": "returns almost to the normal levels"}, {"measurement": "threshold of mechanical sensitivity (von Frey)", "setting": "male Sprague Dawley rats; group A, paclitaxel + IMMUFLAM 6 mg/kg i.p. daily from day 14, day 30, vehicle 11.85±0.61 s", "value": "18.28 ± 0.65", "unit": "s"}, {"measurement": "threshold of thermal sensitivity (Hargreaves)", "setting": "male Sprague Dawley rats; paclitaxel + IMMUFLAM 6 mg/kg i.p. for twenty-one days (day 35), vehicle 5.82±0.18 s", "value": "10.21 ± 0.34", "unit": "s"}, {"measurement": "decrease of creatine kinase (CK) levels", "setting": "mdx mice; 0.25 mg/mouse i.p. daily for two weeks, P<0.05, FIG. 33", "value": 70, "unit": "%"}, {"measurement": "centralization of the nucleus", "setting": "mdx mice; anterior tibial muscles", "value": "significant reductions"}, {"measurement": "number of degenerative fibres", "setting": "mdx mice; anterior tibial muscles", "value": "significant reductions"}, {"measurement": "area of the muscle cross sections (CSA)", "setting": "mdx mice; anterior tibial muscles, vs carrier, FIG. 34", "value": "significant increase in area of the muscle cross sections"}, {"measurement": "decrease in the number of cells positive for CD3 in muscle", "setting": "mdx mice; anti-CD3 stained muscle sections", "value": 40, "unit": "%"}, {"measurement": "I1-1β", "setting": "mdx mice; [1]", "value": "significant reduction"}, {"measurement": "levels of mRNA typical of the Treg cells", "setting": "mdx mice; [1]", "value": "significant increase"}]}]}
